From ChEMBL document CHEMBL3232872, “Cytotoxic constituents from Lobaria scrobiculata and a comparison of two bioassays for their evaluation” (J Nat Prod, 2014) come the findings set out here.

For series [1], the system named is HeLa. The experiment in a line: Cytotoxicity against human HeLa cells after 48 hrs by WST-1 assay. The class given is functional, cell-based.
The nature of series [2]: Chemical stability of the compound in methanol measured immediately post compound addition by LC-MS analysis. Type of series: physicochemical. To be noted: read-out: Stability.
The test system of series [3] is HL-60. The experiment in a line: Cytotoxicity against human HL60 cells assessed as decrease in cell viability at 10 ug/mL measured over 72 hrs by trypan blue assay. The class given is functional, cell-based.
The test system of series [4] is HL-60. The experiment in a line: Cytotoxicity against human HL60 cells assessed as metabolic activity at 10 ug/mL measured over 72 hrs by WST-1 assay. The class given is functional, cell-based. (In general: Tetrazolium assays rely on reduction of a dye to a coloured formazan, in cell work by metabolically active cells.)
Series [5] deals with HeLa. The experiment in a line: Cytotoxicity against human HeLa cells after 24 hrs by WST-1 assay. Type of series: functional, cell-based.
Series [6] can be described thus: Chemical stability of the compound in methanol measured at 48 hrs by LC-MS analysis. Type of series: physicochemical. Conditions: read-out: Stability.
A short description of series [7]: Chemical stability of the compound in methanol measured at 24 hrs by LC-MS analysis. Type of series: physicochemical. Conditions: read-out: Stability.
A short description of series [8]: Drug degradation in methanol assessed as divaricatinic acid methyl ester formation after 72 hrs by LC-MS analysis. Type of series: physicochemical.
Series [9] concerns HL-60. The experiment in a line: Cytotoxicity against human HL60 cells after 48 hrs by WST-1 assay. To be noted: HL-60, 48 h. The class given is functional, cell-based.
For series [10], the system named is HL-60. The experiment in a line: Cytotoxicity against human HL60 cells after 24 hrs by WST-1 assay. The class given is functional, cell-based. To be noted: HL-60, 24 h.
Series [11] in a line: Drug degradation in methanol assessed as 2,3,4 trihydroxy-6-propylbenzoic acid methyl ester formation after 72 hrs by LC-MS analysis. Type of series: physicochemical.
A short description of series [12]: Chemical stability of the compound in methanol measured at 72 hrs by LC-MS analysis. Type of series: physicochemical. To be noted: read-out: Stability.
The test system of series [13] is Vero. The experiment in a line: Cytotoxicity against African green monkey Vero cells after 48 hrs by Alamar Blue assay. Type of series: cell-based. Conditions: Chlorocebus sabaeus.
Series [14] relates to Vero. The experiment in a line: Cytotoxicity against African green monkey Vero cells after 24 hrs by Alamar Blue assay. Type of series: cell-based. To be noted: Chlorocebus sabaeus. In general terms: Resazurin is reduced to fluorescent resorufin, in cell work by metabolically active cells.
The subject of series [15] is HL-60. The experiment in a line: Cytotoxicity against human HL60 cells assessed as metabolic activity at 50 ug/mL after 24 hrs by WST-1 assay. Type of series: functional, cell-based.
Series [16] deals with HL-60. The experiment in a line: Cytotoxicity against human HL60 cells assessed as decrease in cell viability at 50 ug/mL after 24 hrs by trypan blue assay. Type of series: functional, cell-based.
Series [17] has as its system HL-60. The experiment in a line: Cytotoxicity against human HL60 cells after 72 hrs. The class given is functional, cell-based. Conditions: HL-60, 72 h.

The source made the active and inactive calls. No cut-off for these calls is given here.

With `CCCc1cc(OC)cc(O)c1C(=O)Oc1c(O)cc(CCC)c(C(=O)OC)c1O`, the concentration for half-maximal inhibition (IC50) (as a rule, the point on the concentration scale where inhibition reaches its midpoint) in the series with HeLa [1] is above 10 µM; with HeLa [5] it was above 10 µM; in the series on HL-60 [9], 7.6 µM; in the series with HL-60 [10], above 10 µM; in the series with Vero [13], above 150 µM; in the series with Vero [14], above 150 µM. Further, in series [2], the remaining at 0 h was 99.8%. Moreover, the outcome in the series on HL-60 [3] and with HL-60 [4] was Active. In addition, in [6], the remaining at 48 h was 35.3%. The remaining at 24 h in series [7] was 63.8%. The Stability result in series [8] and in series [11] was “Unstable” in each case. In series [12], the remaining at 72 h was 22.1%.

In the case of `COc1cc(C)c2c(c1C=O)Oc1c(C=O)c(C(=O)O)c(O)c(C)c1OC2=O`, the IC50 is above 10 µM in the series on HeLa [1]; above 10 µM in the series on HeLa [5]; above 10 µM in the series on HL-60 [9]; above 10 µM in the series with HL-60 [10]; above 150 µM in the series on Vero [13]; above 150 µM in the series on Vero [14]. Further, the remaining at 0 h in [2] stood at 94.1%. Moreover, in the series with HL-60 [15], the outcome was inactive. Besides, in series [6], the remaining at 48 h was 89.6%. Besides, the remaining at 24 h in series [7] was determined as 88.5%. Besides, the remaining at 72 h in [12] was 89.5%. The outcome with HL-60 [16] was Active.

Regarding `CCCc1cc(O)cc(O)c1C(=O)OC`, the IC50 with HeLa [1] was above 10 µM; in the series with HeLa [5], above 10 µM; in the series with HL-60 [9], above 10 µM; in the series on HL-60 [10], above 10 µM; in the series with Vero [13], above 150 µM; with Vero [14] it was above 150 µM. Also, the remaining at 0 h in series [2] amounted to 99.8%. Also, the remaining at 48 h in [6] is 99.9%. Moreover, the remaining at 24 h in series [7] was determined as 99.9%. Further, in [12], the remaining at 72 h was found to be 99.9%.

In the case of `CCCc1cc(O)c(O)c(O)c1C(=O)OC`, the IC50 in the series on HeLa [1] is above 10 µM; with HeLa [5] it was above 10 µM; in the series with HL-60 [9], above 10 µM; in the series with HL-60 [10], above 10 µM; with Vero [13], above 150 µM; in the series on Vero [14], above 150 µM. Besides, the remaining at 0 h in [2] worked out at 97.8%. Besides, the remaining at 48 h in series [6] was determined as 94.6%. In addition, the remaining at 24 h in series [7] stood at 95%. Also, in series [12], the remaining at 72 h was determined as 94.8%.

On to `CC(=O)C1=C(O)C=C2Oc3c(C(C)=O)c(O)c(C)c(O)c3[C@@]2(C)C1=O` [(+)-USNIC ACID], for which the half-maximal inhibitory concentration (IC50) is above 10 µM in the series with HeLa [1]; 48.5 µM in the series with HL-60 [17]; above 10 µM in the series on HeLa [5]; 1.7 µM with HL-60 [9]; 5.4 µM in the series with HL-60 [10]; above 150 µM with Vero [13]. This compound registered an IC50 in the series on Vero [14] above 150 µM. Besides, the remaining at 0 h in [2] amounted to 99.9%. Besides, the remaining at 48 h in series [6] was found to be 99.9%. Further, in series [7], the remaining at 24 h was 99.9%. In series [12], the remaining at 72 h was found to be 99.9%.

Turning to `COc1cc(C)c2c(c1C=O)Oc1c(c(C)c(O)c3c1C(O)OC3=O)OC2=O` (centres undefined) [STICTIC ACID], the IC50 with HeLa [1] was above 10 µM; with HeLa [5], above 10 µM; with HL-60 [9] it was above 10 µM; in the series on HL-60 [10], above 10 µM; with Vero [13] it was above 150 µM; with Vero [14], above 150 µM. The remaining at 0 h in [2] was determined as 89.7%. Besides, the result in the series with HL-60 [15] was inactive. Further, the remaining at 48 h in series [6] was 91.8%. Further, the remaining at 24 h in [7] was determined as 90.1%. Besides, the remaining at 72 h in series [12] turned out to be 91.8%. The outcome in the series on HL-60 [16] was Active.
